Patent US9663513B2, “Pyrimidine PDE10 inhibitors” (Merck Sharp & Dohme Corp., priority 2012, dated 2017)

Each molecule was assayed against human PDE10A2 (Homo sapiens (Human), UniProt Q9Y233) (assay: PDE10 fluorescence polarization (IMAP FP) inhibition assay). Conditions: human PDE10A2 from transfected AD293 cells; FAM-labeled cAMP 50 nM; apparent inhibition constant; read-out: PDE10A Ki.
Assay type: biochemical
How it was run: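 Cytoplasmic lysate of AD293 cells transiently expressing human PDE10A2 (enzyme level giving 20% conversion) incubated with 50 nM FAM-cAMP in pH 7.2 Tris/MgCl2 buffer, 30 min at room temperature. IMAP binding solution added, FP read after ≥1 h; 10-point 3-fold compound titrations fitted to a four-parameter equation.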

human PDE10A2, sequence (Q9Y233 267-1055): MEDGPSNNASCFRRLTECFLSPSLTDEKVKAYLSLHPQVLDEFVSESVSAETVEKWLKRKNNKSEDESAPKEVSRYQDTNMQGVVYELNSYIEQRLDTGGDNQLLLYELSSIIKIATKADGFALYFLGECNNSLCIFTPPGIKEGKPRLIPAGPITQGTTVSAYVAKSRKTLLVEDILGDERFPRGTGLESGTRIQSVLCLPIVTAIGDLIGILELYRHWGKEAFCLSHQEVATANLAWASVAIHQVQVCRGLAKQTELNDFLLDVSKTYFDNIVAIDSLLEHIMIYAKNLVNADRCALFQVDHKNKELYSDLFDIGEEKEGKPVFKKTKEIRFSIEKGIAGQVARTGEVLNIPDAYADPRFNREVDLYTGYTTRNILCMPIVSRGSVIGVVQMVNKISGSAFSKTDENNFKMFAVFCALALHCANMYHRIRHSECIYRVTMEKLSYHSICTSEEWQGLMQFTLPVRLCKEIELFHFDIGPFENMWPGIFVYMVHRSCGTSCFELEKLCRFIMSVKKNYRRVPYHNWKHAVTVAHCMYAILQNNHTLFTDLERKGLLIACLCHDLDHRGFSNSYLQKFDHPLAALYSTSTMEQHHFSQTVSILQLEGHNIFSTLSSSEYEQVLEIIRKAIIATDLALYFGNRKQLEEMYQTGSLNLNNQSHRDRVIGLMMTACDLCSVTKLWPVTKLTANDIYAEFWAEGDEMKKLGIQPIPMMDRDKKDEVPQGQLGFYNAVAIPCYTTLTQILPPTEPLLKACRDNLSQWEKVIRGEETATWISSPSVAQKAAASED

Row | Compound | Ki [nM]
1 | Cc1ccc([C@H]2C[C@@H]2COc2nc(C)ncc2-c2cnc(C)cc2C)nc1 [Example 55, 5-(4,6-dimethylpyridin-3-yl)-2-methyl-4-(((1S,2S)-2-(5-methylpyridin-2-yl)cyclopropyl)methoxy)pyrimidine] | 0.87
2 | CCc1ccc([C@@H]2C[C@@H]2COc2nc(C)ncc2[C@H]2CC[C@@H](O)CC2)nc1 [Example 197, (1R,4s)-4-(4-(((1S,2R)-2-(5-ethylpyridin-2-yl)cyclopropyl)methoxy)-2-methylpyrimidin-5-yl)cyclohexanol] | 1.73
3 | Cc1ncc(-c2ncccc2F)c(OC[C@H]2C[C@@H]2c2ccc3ccccc3n2)n1 [Example 127, 2-((1S,2S)-2-((5-(3-fluoropyridin-2-yl)-2-methylpyrimidin-4-yloxy)methyl)cyclopropyl)quinoline] | 0.51
4 | Cc1ccnc(-c2cnc(C)nc2OC[C@H]2C[C@@H]2c2ccc3ccccc3n2)c1 [Example 128, 2-((1S,2S)-2-((2-methyl-5-(4-methylpyridin-2-yl)pyrimidin-4-yloxy)methyl)cyclopropyl)quinoline] | 0.12
5 | COc1ccc([C@H]2C[C@@H]2COc2nc(C)ncc2[C@H]2CC[C@@H](C(=O)O)CC2)nc1 [Example 217, cis-4-(4-(((1S,2S)-2-(5-Methoxypyridin-2-yl)cyclopropyl)methoxy)-2-methylpyrimidin-5-yl)cyclohexanecarboxylic acid] | 5.29
6 | Cc1ccc([C@H]2C[C@@H]2COc2nc(C)ncc2-c2ccc(C(C)O)nc2)nc1 (stereo partly drawn) [Example 149, 1-(5-(2-methyl-4-(((1S,2S)-2-(5-methylpyridin-2-yl)cyclopropyl)methoxy)pyrimidin-5-yl)pyridin-2-yl)ethanol] | 0.14
7 | Cc1ncc(C2CCC(=O)CC2)c(OC[C@H]2C[C@@H]2c2ccc3ccccc3n2)n1 [Example 191, 4-(2-methyl-4-(((1S,2S)-2-(quinolin-2-yl)cyclopropyl)methoxy)pyrimidin-5-yl)cyclohexanone] | 0.06
8 | Cc1ccc([C@H]2C[C@@H]2COc2nc(C)ncc2C2CCC3(CC2)OCCO3)nc1 [Example 184, 2-methyl-4-(((1S,2S)-2-(5-methylpyridin-2-yl)cyclopropyl)methoxy)-5-(1,4-dioxaspiro[4.5]decan-8-yl)pyrimidine] | 2.81
9 | Cc1ccc([C@H]2C[C@@H]2COc2nc(C)ncc2-c2ccncc2C)nc1 [Example 147, 2-methyl-4-(((1S,2S)-2-(5-methylpyridin-2-yl)cyclopropyl)methoxy)-5-(3-methylpyridin-4-yl)pyrimidine] | 0.4
10 | COc1ccc([C@H]2C[C@@H]2COc2nc(C)ncc2-c2cc(Cl)ncc2C(F)(F)F)nc1 [Example 88, 5-(2-chloro-5-(trifluoromethyl)pyridin-4-yl)-4-(((1S,2S)-2-(5-methoxypyridin-2-yl)cyclopropyl)methoxy)-2-methylpyrimidine] | 0.99
11 | COc1ccc([C@H]2C[C@@H]2COc2nc(C)ncc2C2=CCOCC2)nc1 [Example 115, 5-(3,6-dihydro-2H-pyran-4-yl)-4-(((1S,2S)-2-(5-methoxypyridin-2-yl)cyclopropyl)methoxy)-2-methylpyrimidine] | 0.76
12 | Cc1ncc(-c2ccncc2)c(OC[C@H]2C[C@@H]2c2ccc3ccccc3n2)n1 (single isomer, unassigned) [Example 27] | 0.93
13 | Cc1ccc([C@H]2C[C@@H]2COc2nc(C)ncc2-c2cnnc(C)c2)nc1 [Example 58, 3-methyl-5-(2-methyl-4-(((1S,2S)-2-(5-methylpyridin-2-yl)cyclopropyl)methoxy)pyrimidin-5-yl)pyridazine] | 3.02
14 | COc1nncc(-c2cnc(C)nc2OC[C@H]2C[C@@H]2c2ccc(C)cn2)c1Cl [Example 52, 4-chloro-3-methoxy-5-(2-methyl-4-(((1S,2S)-2-(5-methylpyridin-2-yl)cyclopropyl)methoxy)pyrimidin-5-yl)pyridazine] | 2.36
15 | Cc1ccc([C@H]2C[C@@H]2COc2nc(C)ncc2-c2ccc(C(C)(C)O)nc2)nc1 (single isomer, unassigned) [Example 46] | 0.06
16 | Cc1cccc([C@H]2C[C@@H]2COc2nc(C)ncc2C2CCC(=O)CC2)n1 [Example 187, 4-(2-methyl-4-(((1S,2S)-2-(6-methylpyridin-2-yl)cyclopropyl)methoxy)pyrimidin-5-yl)cyclohexanone] | 18.6
17 | CCC(O)c1ccc(-c2cnc(C)nc2OC[C@H]2C[C@@H]2c2ccc(C)cn2)cn1 (stereo partly drawn) [Example 144, 1-(5-(2-methyl-4-(((1S,2S)-2-(5-methylpyridin-2-yl)cyclopropyl)methoxy)pyrimidin-5-yl)pyridin-2-yl)propan-1-ol] | 0.73
18 | Cc1ncc(C2CCC3(CC2)OCCO3)c(OC[C@H]2C[C@H]2c2ccccn2)n1 [Example 198, 2-methyl-4-(((1S,2R)-2-(pyridin-2-yl)cyclopropyl)methoxy)-5-(1,4-dioxaspiro[4.5]decan-8-yl)pyrimidine] | 27.6
19 | COc1ccc([C@H]2C[C@@H]2COc2nc(C)ncc2-c2cc(C(F)(F)F)cnc2Cl)nc1 [Example 87, 5-(2-chloro-5-(trifluoromethyl)pyridin-3-yl)-4-(((1S,2S)-2-(5-methoxypyridin-2-yl)cyclopropyl)methoxy)-2-methylpyrimidine] | 0.44
20 | Cc1ccc([C@H]2C[C@@H]2COc2nc(C)ncc2-c2ccccc2OC(F)(F)F)nc1 [Example 5] | 3.15
21 | Cc1ccc([C@H]2C[C@@H]2COc2nc(C)ncc2-c2cnnc(Br)c2)nc1 [Example 59, 3-bromo-5-(2-methyl-4-(((1S,2S)-2-(5-methylpyridin-2-yl)cyclopropyl)methoxy)pyrimidin-5-yl)pyridazine] | 4.34
22 | Cc1ncc(C2(O)CCC3(CC2)OCCO3)c(OC[C@H]2C[C@@H]2c2ccc3ccccc3n2)n1 [Example 206, 8-(2-methyl-4-(((1S,2S)-2-(quinolin-2-yl)cyclopropyl)methoxy)pyrimidin-5-yl)-1,4-dioxaspiro[4.5]decan-8-ol] | 6.28
23 | COc1cc(-c2cnc(C)nc2OC[C@H]2C[C@@H]2c2ccc(C)cn2)cc2nccn12 [Example 132, 5-methoxy-7-(2-methyl-4-(((1S,2S)-2-(5-methylpyridin-2-yl)cyclopropyl)methoxy)pyrimidin-5-yl)imidazo[1,2-a]pyridine] | 0.81

The remaining lines, values ahead:

Row | Ki [nM] | Compound
24 | 5.71 | Cc1ccc([C@H]2C[C@@H]2COc2nc(C)ncc2-c2ccc(C(F)(F)F)cc2)nc1 [Example 10, 2-methyl-4-(((1S,2S)-2-(5-methylpyridin-2-yl)cyclopropyl)methoxy)-5-(4-(trifluoromethyl)phenyl)pyrimidine]
25 | 1.64 | COc1ccc([C@H]2C[C@@H]2COc2nc(C)ncc2-c2cnc(O)nc2)nc1 [Example 70, 4′-(((1S,2S)-2-(5-methoxypyridin-2-yl)cyclopropyl)methoxy)-2′-methyl-5,5′-bipyrimidin-2-ol]
26 | 29.9 | COc1ccc([C@H]2C[C@@H]2COc2nc(C)ncc2-c2cc(OC)nn2C)nc1 [Example 240, 5-(3-methoxy-1-methyl-1H-pyrazol-5-yl)-4-(((1S,2S)-2-(5-methoxypyridin-2-yl)cyclopropyl)methoxy)-2-methylpyrimidine]
27 | 0.1 | COc1ccc(-c2cnc(C)nc2OC[C@H]2C[C@@H]2c2ccc3ccccc3n2)cc1 (single isomer, unassigned) [Example 28]
28 | 0.1 | COc1ccc([C@H]2C[C@@H]2COc2nc(C)ncc2-c2ccc(-c3nn[nH]n3)cc2)nc1 [Example 222, 5-(4-(1H-tetrazol-5-yl)phenyl)-4-(((1S,2S)-2-(5-methoxypyridin-2-yl)cyclopropyl)methoxy)-2-methylpyrimidine]
29 | 1.13 | Cc1ccc([C@H]2C[C@@H]2COc2nc(C)ncc2-c2ccc(F)c(C)c2)nc1 [Example 9, 5-(4-fluoro-3-methylphenyl)-2-methyl-4-(((1S,2S)-2-(5-methylpyridin-2-yl)cyclopropyl)methoxy)pyrimidine]
30 | 0.48 | COc1ccc([C@H]2C[C@@H]2COc2nc(C)ncc2C2=CC(=O)CC2)nc1 [Example 76, 3-(4-(((1S,2S)-2-(5-methoxypyridin-2-yl)cyclopropyl)methoxy)-2-methylpyrimidin-5-yl)cyclopent-2-enone]
31 | 2.13 | COc1ccc([C@H]2C[C@@H]2COc2nc(C)ncc2-c2ccc3[nH]ccc3c2)nc1 [Example 90, 5-(4-(((1S,2S)-2-(5-methoxypyridin-2-yl)cyclopropyl)methoxy)-2-methylpyrimidin-5-yl)-1H-indole]
32 | 11.9 | COc1ccc([C@H]2C[C@@H]2COc2nc(C)ncc2-c2ccc(CO)nn2)nc1 [Example 101, (6-(4-(((1S,2S)-2-(5-methoxypyridin-2-yl)cyclopropyl)methoxy)-2-methylpyrimidin-5-yl)pyridazin-3-yl)methanol]
33 | 11.6 | COc1ccc([C@H]2C[C@@H]2COc2nc(C)ncc2-c2ccc(Br)cn2)nc1 [Example 86, 5-(5-bromopyridin-2-yl)-4-(((1S,2S)-2-(5-methoxypyridin-2-yl)cyclopropyl)methoxy)-2-methylpyrimidine]
34 | 1.16 | CCn1nnnc1-c1ccc(-c2cnc(C)nc2OC[C@H]2C[C@@H]2c2ccc(OC)cn2)cn1 [Example 233, 5-(6-(1-ethyl-1H-tetrazol-5-yl)pyridin-3-yl)-4-(((1S,2S)-2-(5-methoxypyridin-2-yl)cyclopropyl)methoxy)-2-methylpyrimidine]
35 | 0.93 | COc1ccc([C@H]2C[C@@H]2COc2nc(C)ncc2-c2ccc(-c3nc(CO)no3)cc2)nc1 [Example 95, (5-(4-(4-(((1S,2S)-2-(5-methoxypyridin-2-yl)cyclopropyl)methoxy)-2-methylpyrimidin-5-yl)phenyl)-1,2,4-oxadiazol-3-yl)methanol]
36 | 0.67 | COc1ccc([C@H]2C[C@@H]2COc2nc(C)ncc2-c2ccc(C(=O)NCC(F)(F)F)nc2)nc1 [Example 104, 5-(4-(((1S,2S)-2-(5-methoxypyridin-2-yl)cyclopropyl)methoxy)-2-methylpyrimidin-5-yl)-N-(2,2,2-trifluoroethyl)picolinamide]
